Results as given in patent EP0172917A1, “AGENTS FOR TREATING IMMUNODEFICIENCY, METHOD FOR TREATING THEM, AND USE THEREOF” (Yoshitomi Pharmaceutical Industries, Ltd., priority 1984, dated 1985).

Legend:
[1] = test system: thymus-rossete forming cells (RFC); experiment: Restorative effect on reduced immune response: thymus RFC in cyclophosphamide-pretreated mice; assay type: in vivo, BALB/c mice; conditions: for Ratio (%) of RFC (mean ± standard error): BALB/c mice; for % decrease: RFC ratio vs control
Protocol: (§1) Six week-old female C57BL/6 mice were immunized with the intraperitoneal administration of 5 x 10^8 sheep red blood cells. […] On the 4th day after immunization, the numbers of thymus-rossete forming cells (RFC) in mice were assessed by the method of Bach et al [Cellular Immunology, vol. 3, p. […] Viable thymus lymphocytes which attached to four or more sheep red blood cells were determined as RFC. In control group, 0.5% methylcellulose solution was orally administered into mice.
The same procedures as shown in Experiment 1 were performed except that six week-old female BALB/c mice were immunized with 5 x 10^8 sheep red blood cells and 20 mg/kg cyclophosphamide was orally administered to mice the day before and on immunization.

[2] = test system: rat peritoneal leukocytes; experiment: Stimulative effect on phagocytosis of leukocytes; assay type: cell-based
Text: (§2) Effect of Compound (I) on phagocytosis was examined using rat peritoneal leukocytes according to the method of Stossel et al described in Journal of Clinical Investigation, vol. 51, p. 615 (1972).

[3] = test system: thymus-rossete forming cells (RFC); experiment: Stimulative effect on immune response: thymus rosette forming cells after sheep red blood cell immunization; assay type: in vivo, C57BL/6 mice; conditions: for Ratio (%) of RFC (mean ± standard error): C57BL/6 mice, control 1.06±0.31; for % increase: RFC ratio vs control
Protocol: as §1

male Wistar rats = experiment: Acute toxicity in rats (LD50, Probit method); assay type: in vivo; conditions: after one week, 10080 min
Protocol: (§3) Compound (I) was administered orally or intraperitoneally to groups of 8 male Wistar rats weighing about 200 g. After one week, acute toxicity (LD50 value) was determined by Probit method.

[4] = test system: spontaneous rosette forming cells; experiment: Stimulative effect on reduced cell-mediated immunity: spontaneous rosette forming cells in thymus of SHR; assay type: in vivo, spontaneous hypertensive rats; conditions: for Ratio (%) of S-RFC (mean ± standard error): SHR, control 46.7±2.9; for % increase: S-RFC ratio vs control
Protocol: Twenty-four hours after the last administration, thymus was removed and cell suspension was prepared. The numbers of spontaneous rosette forming cells (hereinafter referred to as S-RFC) were measured the method of Takeichi and Boone [Cellular Immunology, vol. 27, p.

male dd-strain mice = experiment: Acute toxicity in mice (LD50); assay type: in vivo; conditions: 10080 min
Protocol: as §3
LD50 values of Compound (I) in groups of 10 male dd-strain mice weighing 20-25 g were also determined.

MeHSA-induced DTH [5] = experiment: Immunosuppressive effect: MeHSA-induced DTH in higher responder strain; assay type: in vivo, BALB/c mice; conditions: for DTH (mm) (mean ± standard error): BALB/c mice, control 0.96±0.09; for % inhibition: DTH vs control
Protocol: (§4) Eight week-old female C57BL/6 mice were injected subcutaneously in the back with 0.1 ml of a 0.25% methylated human serum albumin (hereinafter referred to as MeHSA). Compound (I) was administered orally for 4 consecutive days from the day of the sensitization. One hour after the last administration of Compound (I), 0.025 ml of a 0.1% MeHSA solution was injected subcutaneously on the left hind^paw. The thickness of footpad was measured the 24 hours after the injection using a dissecting microscope by the method of Baba et al [Acta Pathology Japan, vol. 27, p. 165 (1977)]. The difference between the thickness of footpad before and after the injection of MeHSA was expressed as the delayed type hypersensitivity (hereinafter referred to as DTH).
Effect of Compound (I) on the MeHSA-induced DTH was examined in 10 week-old female BALB/c mice, higher responder strain to the MeHSA-induced DTH, by the same procedures as described in Experiment 5.

peritoneal macrophages = experiment: Stimulative effect on phagocytosis of macrophages; assay type: cell-based, rats; conditions: rat peritoneal macrophages
Protocol: as §2
Casein sodium was injected intraperitoneally into rats. Three days later, peritoneal macrophages were harvested. Phagocytosis was assessed by the same procedures as shown in Experiment 3.

[6] = test system: natural thymotoxic autoantibody; experiment: Inhibitory effect on the production of autoantibody (NTA); assay type: in vivo, NZB/W F1 mice; conditions: 30 mg/kg orally three times every week
Protocol: To 4 week-old female NZB/W F, mice was orally administered Compound (I) three times every week and, at 7 week-old mice blood was gathered from the eyegrounds and the serum was separated. The detection of natural thymotoxic autoantibody (hereinafter referred to as NTA) was performed by the method of Takeichi et al [Cellular Immunology, vol. 60, p. 181 (1981)].

MeHSA-induced DTH [7] = experiment: Stimulative effect on cell-mediated immunity: MeHSA-induced delayed type hypersensitivity, footpad thickness; assay type: in vivo, C57BL/6 mice; conditions: for DTH (mm) (mean ± standard error): C57BL/6 mice, control 0.21±0.02; for % increase: DTH vs control
Protocol: as §4

For `CCN(CC)CCN1CCC2(CC1)SCC(=O)N2c1ccccc1.Cl.Cl.O` [Compound (I), 8-(2-diethylaminoethyl)-3-oxo-4-phenyl-l-thia-4,8-diazaspiro-[4.5]decane dihydrochloride monohydrate], the “Ratio (%) of RFC (mean ± standard error)” value ([1]; Compound (I) 10 mg/kg orally with cyclophosphamide 20 mg/kg) was 1.78±0.80%, the “Ratio (%) of RFC (mean ± standard error)” value ([1]; Compound (I) 30 mg/kg orally with cyclophosphamide 20 mg/kg) was 3.86±0.52 % and the “Ratio (%) of RFC (mean ± standard error)” value ([1]; Compound (I) 100 mg/kg orally with cyclophosphamide 20 mg/kg) was 5.26±0.64 %. The “% decrease” value ([1]; Compound (I) 10 mg/kg with cyclophosphamide 20 mg/kg) was 74%, the “% decrease” value ([1]; Compound (I) 30 mg/kg with cyclophosphamide 20 mg/kg) was 43% and the “% decrease” value ([1]; Compound (I) 100 mg/kg with cyclophosphamide 20 mg/kg) was 23%. The “% increase of phagocytosis” value ([2]; 10 μM) was 27.1%, the “% increase of phagocytosis” value ([2]; 100 μM) was 61.4% and the “Ratio (%) of RFC (mean ± standard error)” value ([3]; 3 mg/kg orally for 4 days) was 5.33±0.99 %. The “Ratio (%) of RFC (mean ± standard error)” value ([3]; 30 mg/kg orally for 4 days) was 6.28±1.27 %, the “% increase” value ([3]; 3 mg/kg orally) was 403% and the “% increase” value ([3]; 30 mg/kg orally) was 492%. For the same compound, the LD50 (male Wistar rats; intraperitoneal) was 827 mg/kg, the LD50 (male Wistar rats; oral) was >8,000 mg/kg and the “Ratio (%) of S-RFC (mean ± standard error)” value ([4]; 25 mg/kg orally for 20 days) was 55.0±5.2%. For the same compound, the “Ratio (%) of S-RFC (mean ± standard error)” value ([4]; 100 mg/kg orally for 20 days) was 57.8±3.6 %, the “% increase” value ([4]; 25 mg/kg orally) was 18% and the “% increase” value ([4]; 100 mg/kg orally) was 24%. For the same compound, the LD50 (male dd-strain mice; intraperitoneal) was 474 mg/kg, the LD50 (male dd-strain mice; oral) was 1,841 mg/kg and the “DTH (mm) (mean ± standard error)” value (MeHSA-induced DTH [5]; 3 mg/kg orally) was 0.91±0.04 mm. The “DTH (mm) (mean ± standard error)” value (MeHSA-induced DTH [5]; 30 mg/kg orally) was 0.77±0.03 mm, the “DTH (mm) (mean ± standard error)” value (MeHSA-induced DTH [5]; 300 mg/kg orally) was 0.71±0.04 mm and the “% inhibition” value (MeHSA-induced DTH [5]; 3 mg/kg orally) was 5%. For the same compound, the “% inhibition” value (MeHSA-induced DTH [5]; 30 mg/kg orally) was 20%, the “% inhibition” value (MeHSA-induced DTH [5]; 300 mg/kg orally) was 36% and the “% increase of phagocytosis” value (peritoneal macrophages; 10 µM) was 12.5%. The “% increase of phagocytosis” value (peritoneal macrophages; 100 µM) was 30.6%, the “NTA (%) (mean ± standard error)” value ([6]; dilution of serum 64, control 28.0±0.8) was 9.5±0.6 % and the “NTA (%) (mean ± standard error)” value ([6]; dilution of serum 128, control 20.3±1.1) was 8.7±0.5 %. For the same compound, the “DTH (mm) (mean ± standard error)” value (MeHSA-induced DTH [7]; 10 mg/kg orally for 4 days) was 0.22±0.02 mm, the “DTH (mm) (mean ± standard error)” value (MeHSA-induced DTH [7]; 100 mg/kg orally for 4 days) was 0.42±0.03 mm and the “DTH (mm) (mean ± standard error)” value (MeHSA-induced DTH [7]; 300 mg/kg orally for 4 days) was 0.33±0.03 mm. For the same compound, the “% increase” value (MeHSA-induced DTH [7]; 10 mg/kg orally) was 5%, the “% increase” value (MeHSA-induced DTH [7]; 100 mg/kg orally) was 100% and the “% increase” value (MeHSA-induced DTH [7]; 300 mg/kg orally) was 57%.
For `O=P1(N(CCCl)CCCl)NCCCO1` (stereo not drawn) [Cyclophosphamide, cyclophosphamide, reference compound], the “% decrease” value ([1]; cyclophosphamide 20 mg/kg alone) was 79%, the “% decrease” value ([1]; cyclophosphamide 20 mg/kg alone, listed as cyclophosphamide) was “about 79%” and the “Ratio (%) of RFC (mean ± standard error)” value ([1]; cyclophosphamide 20 mg/kg orally alone, control 6.81±1.38) was 1.14±0.63%.
